# In patent publication US20220016196A1, “Aloe Based Compositions Comprising Polysaccharides and Polyphenols for Regulation of Homeostasis of Immunity” (Unigen, Inc., priority 2020, published 2022):
# What was measured:
# IL-6 = test: LPS-induced acute lung injury, BAL IL-6 ELISA; assay type: in vivo, rat; details: rats
# Protocol: (§1) The study was designed to evaluate the direct impact of an Aloe-based composition (UP360) made in the Example 9 in alleviating LPS-induced acute lung injury administered orally at 500 mg/kg and 250 mg/kg. […] In this study, we treated rats with the test materials orally for 7 days before model induction with LPS. On the 8th day, an hour after oral treatment, LPS was instilled intratracheally (i.t.) at 10 mg/kg dissolved in 0.1 mL/100 g PBS to each rat. The normal control rats received the same volume i.t. PBS only.
# (§2) We sacrificed surviving animals 24 hours after intratracheal LPS administration to the rats. At necropsy, collected bronchoalveolar lavage (BAL) by intratracheal injection of 1.5 mL PBS into the right lobe followed by gentle aspiration at least 3 times. Pooled recovered fluid, centrifuged at 1500 rpm for 10 min at 4 ° C., and was used to measure cytokines (e.g. IL-6) and pulmonary protein levels. […]
# (§3) The presence of IL-6 in undiluted rat broncho-alveolar lavage (BAL) from Example 23 was measured using the Rat IL-6 Quantikine ELISA kit from R&D Systems (product #: R6000B) as follows: undiluted BAL was added to a microplate coated with IL-6 antibody. […] After developing for 30 minutes at room temperature, a stop solution was added, and the absorbance was read at 450 nm. The concentration of IL-6 was calculated based on the absorbance readings of an IL-6 standard curve.
# TNF-α = test: LPS-induced acute lung injury, serum TNF-α ELISA; assay type: in vivo, rat; details: rats
# Protocol: as §1, §2
# as §3, with “TNF-α” for “IL-6”, “serum” for “broncho-alveolar lavage (BAL)”, “rat TNF-α” for “Rat IL-6”, “(product#: RTA00)” for “(product #: R6000B)”, “serum” for “BAL”, “a TNF-α” for “an IL-6”
compound,measurement,setting,value
CCCC(=O)[O-].[Na+] [Sodium Butyrate],"BAL IL-6 level, Mean ± SD","IL-6; LPS 10 mg/kg i.t., 24 hours post, oral, 500 mg/kg",1933.30 ± 1744.23 pg/mL
same,reduction in the level of BAL IL-6 vs vehicle,"IL-6; LPS i.t., 500 mg/kg oral",37.7%
same,"serum TNF-α level, Mean ± SD","TNF-α; LPS 10 mg/kg i.t., 24 hours post, oral 7 days pre-treatment, 500 mg/kg",3.35 ± 1.73 pg/mL
same,reduction in serum TNF-α level vs vehicle control,"TNF-α; LPS i.t., 500 mg/kg oral",67.9%
